From patent US9440964B2, “Pesticidal compositions and processes related thereto” (Dow AgroSciences LLC, priority 2011, dated 2016)
Like-named read-outs stand apart in the source and are kept apart here.

Tests used:
[1] = test system: BAW (Spodoptera exigua); assay: Bioassay on Beet Armyworm (BAW), 128-well diet tray; assay type: in vivo; settings: Spodoptera exigua, 168 h, read-out: Rating BAW
Protocol: (§1) Certain molecules disclosed in this document were tested against BAW and CEW using procedures described in the following examples. In the reporting of the results, the “BAW & CEW Rating Table” was used (See Table Section).
Bioassays on BAW (Spodoptera exigua)
(§2) Trays were covered with a clear self-adhesive cover and held at 25° C., 14:10 light-dark for five to seven days. Percent mortality was recorded for the larvae in each well; activity in the eight wells was then averaged. The results are indicated in the table entitled “Table ABC: Biological Results” (See Table Section).

[2] = test system: CEW (Helicoverpa zea); assay: Bioassay on Corn Earworm (CEW), 128-well diet tray; assay type: in vivo; settings: Helicoverpa zea, 168 h; for pest or weed control at 50 µg/cm2: read-out: Rating CEW; for pest or weed control at 0.5 µg/cm2: 0.5 μg/cm^2 on diet, read-out: Rating CEW (*Tested at 0.5 μg/cm^2)
Protocol: as §1
Bioassays on CEW (Helicoverpa zea)
as §2

[3] = percent mortality, second instar larvae, 50 μg/cm^2 on diet, five to seven days
[4] = percent mortality, second instar larvae, five to seven days

Row | SMILES | pest or weed control at 50 µg/cm2 [1, 3] [%] | pest or weed control at 50 µg/cm2 [2, 3] [%] | pest or weed control at 50 µg/cm2 [1] [%] | pest or weed control at 50 µg/cm2 [2] [%] | pest or weed control at 0.5 µg/cm2 [2, 4] [%]
1 | CCc1ccccc1N/C(=N\C(=O)Nc1ccc(-c2ncn(-c3ccc(OC(F)(F)F)cc3)n2)cc1)SCOC(=O)C(C)C [Molecule A57] | 50 to 100 | 50 to 100 | – | – | –
2 | Cc1cccc(C)c1N/C(=N/C(=O)Nc1ccc(-c2ncn(-c3ccc(C(F)(F)F)cc3)n2)cc1)SCOC(=O)CNC(=O)OCc1ccccc1 [Molecule A8, (Z)—((N-(2,6-Dimethylphenyl)-N′-((4-(1-(4-(trifluoromethyl)phenyl)-1H-1,2,4-triazol-3-yl)phenyl)carbamoyl)carbamimidoyl)thio)methyl 2-(((benzyloxy)carbonyl)amino)acetate] | – | – | 50 to 100 | 50 to 100 | –
3 | CC(C)c1ccccc1N1C(=O)CS/C1=N\C(=O)Nc1ccc(-c2ncn(-c3ccc(OC(F)(F)C(F)(F)F)cc3)n2)cc1 [Molecule A115] | 50 to 100 | – | – | – | 50 to 100
4 | CC(C)(C)c1ccccc1N/C(S)=N/C(=O)Nc1ccc(-c2ncn(-c3ccc(OC(F)(F)F)cc3)n2)cc1 [Molecule A67] | 50 to 100 | – | – | – | 50 to 100
5 | CC(=O)/C(C(=O)Nc1ccc(-c2ncn(-c3ccc(OC(F)(F)F)cc3)n2)cc1)=C(/S)Nc1ccccc1C(C)C [Molecule A20, (E)-3-hydroxy-2-((2-isopropylphenyl)carbamothioyl)-N-(4-(1-(4-(trifluoromethoxy)phenyl)-1H-1,2,4-triazol-3-yl)phenyl)but-2-enamide] | 50 to 100 | 50 to 100 | – | – | –
6 | CC(C)c1c(F)cccc1N/C(S)=N/C(=O)Nc1ccc(-c2ncn(-c3ccc(OC(F)(F)F)cc3)n2)cc1 [Molecule A107] | 50 to 100 | – | – | – | 50 to 100
7 | COc1cc(C)c(N/C(S)=N/C(=O)Nc2ccc(-c3ncn(-c4ccc(OC(F)(F)F)cc4)n3)cc2)c(C)c1 [Molecule A50] | 50 to 100 | 50 to 100 | – | – | –
8 | Cc1ccccc1N/C(=N\C(=O)Nc1ccc(-c2ncn(-c3ccc(OC(F)(F)F)cc3)n2)cc1)SCOC(=O)C(C)C [Molecule A60] | 50 to 100 | 50 to 100 | – | – | –
9 | Cc1c(F)cccc1N1C(=O)CS/C1=N\C(=O)Nc1ccc(-c2ncn(-c3ccc(OC(F)(F)F)cc3)n2)cc1 [Molecule A93] | 50 to 100 | – | – | – | 50 to 100
10 | CC(C)c1ccccc1N1C(=O)CS/C1=N\C(=O)Nc1ccc(-c2ncn(-c3ccc(OC(F)(F)F)cc3)n2)cc1 [Molecule A19, (Z)-1-(3-(2-isopropylphenyl)-4-oxothiazolidin-2-ylidene)-3-(4-(1-(4-(trifluoromethoxy)phenyl)-1H-1,2,4-triazol-3-yl)phenyl)urea] | 50 to 100 | 50 to 100 | – | – | –
11 | CC(C)C(=O)OCS/C(=N\C(=O)Nc1ccc(-c2ncn(-c3ccc(OC(F)(F)F)cc3)n2)cc1)Nc1ccccc1C(C)C [Molecule A5, (Z)—((N-(2-Isopropylphenyl)-N′-((4-(1-(4-(trifluoromethoxy)phenyl)-1H-1,2,4-triazol-3-yl)phenyl)carbamoyl)carbamimidoyl)thio)methyl isobutyrate] | 50 to 100 | 50 to 100 | – | – | –
12 | Cc1ccc(Cl)cc1N/C(S)=N/C(=O)Nc1ccc(-c2ncn(-c3ccc(OC(F)(F)F)cc3)n2)cc1 [Molecule A72] | 50 to 100 | – | – | – | 50 to 100
